Results: PubChem BioAssay AID328 (DTP/NCI, 2004)
Values joined by “and” are separate entries in the source; they are usually repeats but may differ in a detail not shown here. Identical values can stand only once. Toxic doses and inconclusive results are not listed.

Test system: BDF1 mice, P388 leukemia ip, median survival T/C
Experiment: NCI In Vivo Anticancer Drug Screen. Data for tumor model P388 Leukemia (intraperitoneal) in B6D2F1 (BDF1) mice
Details: endpoint: median survival time, higher = longer survival
Procedure, shortened: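 Read-out is survival of treated animals expressed relative to the vehicle group, as a T/C ratio.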

[1] = dose: 12.0 mg/kg/injection, schedule: Q01DX009 (ip), vehicle: Klucel (hydroxypropylcellulose) (HPC)
[2] = dose: 50.0 mg/kg/injection, schedule: Q01DX009 (ip), vehicle: saline with Tween-80
[3] = dose: 100.0 mg/kg/injection, schedule: Q01DX009 (ip), vehicle: saline with Tween-80
[4] = dose: 200.0 mg/kg/injection, schedule: Q01DX009 (ip), vehicle: saline with Tween-80
[5] = dose: 100.0 mg/kg/injection, schedule: Q01DX001 (ip), vehicle: saline with Tween-80
[6] = dose: 200.0 mg/kg/injection, schedule: Q01DX001 (ip), vehicle: saline with Tween-80
[7] = dose: 200.0 mg/kg/injection, schedule: Q04DX003 (ip), vehicle: saline with Tween-80
[8] = dose: 100.0 mg/kg/injection, schedule: Q01DX009 (ip), vehicle: Klucel (hydroxypropylcellulose) (HPC)
[9] = dose: 200.0 mg/kg/injection, schedule: Q01DX009 (ip), vehicle: Klucel (hydroxypropylcellulose) (HPC)
[10] = dose: 100.0 mg/kg/injection, schedule: Q04DX003 (ip), vehicle: saline with Tween-80
[11] = dose: 400.0 mg/kg/injection, schedule: Q04DX003 (ip), vehicle: saline with Tween-80

CC(C)CCC[C@@H](C)[C@H]1CC[C@H]2[C@@H]3CC=C4C[C@@H](OC(=O)Cc5ccc(N(CCCl)CCCl)cc5)CC[C@]4(C)[C@H]3CC[C@]12C
T/C (dose: 6.25 mg/kg/injection, schedule: Q01DX010 (sc), vehicle: steriod suspending solution): 87 % of control
T/C (dose: 12.5 mg/kg/injection, schedule: Q01DX010 (sc), vehicle: steriod suspending solution): 91 % of control
T/C (dose: 25.0 mg/kg/injection, schedule: Q01DX010 (sc), vehicle: steriod suspending solution): 91 % of control
T/C (dose: 50.0 mg/kg/injection, schedule: Q01DX010 (oral), vehicle: steriod suspending solution): 104 % of control
T/C (dose: 50.0 mg/kg/injection, schedule: Q01DX010 (sc), vehicle: steriod suspending solution): 92 % of control
T/C (dose: 100.0 mg/kg/injection, schedule: Q01DX010 (oral), vehicle: steriod suspending solution): 118 % of control
T/C (dose: 100.0 mg/kg/injection, schedule: Q01DX010 (sc), vehicle: steriod suspending solution): 111 % of control
T/C (dose: 200.0 mg/kg/injection, schedule: Q01DX010 (sc), vehicle: steriod suspending solution): 107 % of control
T/C (dose: 400.0 mg/kg/injection, schedule: Q01DX010 (oral), vehicle: steriod suspending solution): 172 % of control
T/C (dose: 400.0 mg/kg/injection, schedule: Q01DX010 (sc), vehicle: steriod suspending solution): 100 % of control
T/C (dose: 800.0 mg/kg/injection, schedule: Q01DX010 (oral), vehicle: steriod suspending solution): 118 % of control

CC(=O)[O][Hg][c]1cc[c]([Hg][O]C(C)=O)s1
T/C (dose: 3.0 mg/kg/injection, schedule: Q01DX009 (ip), vehicle: Klucel (hydroxypropylcellulose) (HPC)): 100 % of control
T/C (dose: 3.0 mg/kg/injection, schedule: Q04DX003 (ip), vehicle: Klucel (hydroxypropylcellulose) (HPC)): 91 % of control
T/C (dose: 6.0 mg/kg/injection, schedule: Q01DX009 (ip), vehicle: Klucel (hydroxypropylcellulose) (HPC)): 100 % of control
T/C (dose: 6.0 mg/kg/injection, schedule: Q04DX003 (ip), vehicle: Klucel (hydroxypropylcellulose) (HPC)): 100 % of control
T/C [1]: 100 % of control
T/C (dose: 12.0 mg/kg/injection, schedule: Q04DX003 (ip), vehicle: Klucel (hydroxypropylcellulose) (HPC)): 100 % of control

CCOC1(c2ccccc2)c2cc(Cl)ccc2NC(=O)N1CC (configuration not stated)
T/C [2]: 101 % of control
T/C [3]: 98 % of control
T/C [4]: 94 % of control

CCc1n[nH]c(=O)c2c3ccccc3nn12
T/C [5]: 96 % of control
T/C [6]: 105 % of control
T/C (dose: 400.0 mg/kg/injection, schedule: Q01DX001 (ip), vehicle: saline with Tween-80): 100 % of control

Oc1c(Br)ccc2c(O)c(Br)ccc12
T/C (dose: 132.0 mg/kg/injection, schedule: Q04DX003 (ip), vehicle: saline with Tween-80): 109 % of control
T/C [7]: 114 % of control
T/C (dose: 300.0 mg/kg/injection, schedule: Q04DX003 (ip), vehicle: saline with Tween-80): 95 % of control

CCC1(Br)OC1=O (configuration not stated)
T/C (dose: 150.0 mg/kg/injection, schedule: Q01DX009 (ip), vehicle: saline): 115 % of control
T/C (dose: 335.0 mg/kg/injection, schedule: Q01DX009 (ip), vehicle: saline): 115 % of control

COc1ccc(/C(=C\S(C)=O)c2cccs2)cc1 (configuration not stated)
T/C [2]: 105 % of control
T/C [3]: 107 % of control
T/C [4]: 100 % of control

CC(=O)OCC1OC(O)C(NC(=O)C(F)(F)F)C(OC(C)=O)C1OC(C)=O (configuration not stated)
T/C (dose: 12.5 mg/kg/injection, schedule: Q04DX003 (ip), vehicle: saline): 118 % of control
T/C (dose: 12.5 mg/kg/injection, schedule: Q## X003 (ip), vehicle: saline): 104 % of control
T/C (dose: 25.0 mg/kg/injection, schedule: Q## X003 (ip), vehicle: saline): 119 % of control

Cc1ccccc1P(=O)(c1ccccc1)c1ccccc1C
T/C (dose: 25.0 mg/kg/injection, schedule: Q01DX009 (ip), vehicle: saline with Tween-80): 90 % of control
T/C [2]: 96 % of control
T/C [3]: 87 % of control

COc1ccc(N=C(c2ccccc2)c2ccc([N+](=O)[O-])cc2)cc1
T/C [1]: 100 % of control
T/C (dose: 25.0 mg/kg/injection, schedule: Q01DX009 (ip), vehicle: Klucel (hydroxypropylcellulose) (HPC)): 109 % of control
T/C (dose: 50.0 mg/kg/injection, schedule: Q01DX009 (ip), vehicle: Klucel (hydroxypropylcellulose) (HPC)): 100 % of control and 122 % of control
T/C [8]: 86 % of control
T/C [9]: 90 % of control

CN(C)c1ccc2nc3ccc(=[N+](C)C)cc-3sc2c1
T/C (dose: 2.5 mg/kg/injection, schedule: Q01DX009 (ip), vehicle: saline): 113 % of control
T/C (dose: 5.0 mg/kg/injection, schedule: Q01DX009 (ip), vehicle: saline): 104 % of control
T/C (dose: 7.2 mg/kg/injection, schedule: Q04DX003 (ip), vehicle: saline): 110 % of control
T/C (dose: 10.0 mg/kg/injection, schedule: Q01DX009 (ip), vehicle: saline): 122 % of control
T/C (dose: 10.0 mg/kg/injection, schedule: Q04DX003 (ip), vehicle: saline): 110 % of control
T/C (dose: 11.5 mg/kg/injection, schedule: Q04DX003 (ip), vehicle: saline): 100 % of control
T/C (dose: 12.5 mg/kg/injection, schedule: Q01DX009 (ip), vehicle: saline): 100 % of control
T/C (dose: 16.5 mg/kg/injection, schedule: Q01DX009 (ip), vehicle: saline): 95 % of control and 100 % of control
T/C (dose: 20.0 mg/kg/injection, schedule: Q01DX009 (ip), vehicle: saline): 104 % of control
T/C (dose: 25.0 mg/kg/injection, schedule: Q01DX009 (ip), vehicle: saline): 100 % of control and 104 % of control
T/C (dose: 37.5 mg/kg/injection, schedule: Q01DX009 (ip), vehicle: saline): 95 % of control
T/C (dose: 37.5 mg/kg/injection, schedule: Q04DX003 (ip), vehicle: saline): 100 % of control

CCOc1ccccc1CC(=O)O
T/C [10]: 100 % of control
T/C [7]: 100 % of control
T/C [11]: 104 % of control

c1ccc(N2CCCCCN2c2ccccc2)cc1
T/C (dose: 50.0 mg/kg/injection, schedule: Q01DX001 (ip), vehicle: saline with Tween-80): 92 % of control
T/C [5]: 90 % of control
T/C [6]: 90 % of control

O=C(CBr)OCCCS(=O)(=O)O
T/C (dose: 50.0 mg/kg/injection, schedule: Q04DX003 (ip), vehicle: saline): 95 % of control
T/C (dose: 100.0 mg/kg/injection, schedule: Q04DX003 (ip), vehicle: saline): 104 % of control
T/C (dose: 200.0 mg/kg/injection, schedule: Q04DX003 (ip), vehicle: saline): 100 % of control

O=c1oc2ccc(Cl)cc2n1Cc1ccc(Cl)cc1
T/C (dose: 50.0 mg/kg/injection, schedule: Q01DX005 (ip), vehicle: saline with Tween-80): 99 % of control
T/C (dose: 100.0 mg/kg/injection, schedule: Q01DX005 (ip), vehicle: saline with Tween-80): 92 % of control
T/C (dose: 200.0 mg/kg/injection, schedule: Q01DX005 (ip), vehicle: saline with Tween-80): 92 % of control

O=C(O)CNC(=O)COc1ccc(Cl)c(Cl)c1
T/C [2]: 94 % of control
T/C [3]: 92 % of control
T/C [4]: 124 % of control

CC(=O)Oc1ccc(/C=N/NC(N)=S)nc1
T/C (dose: 0.18 mg/kg/injection, schedule: Q01DX009 (ip), vehicle: saline with Tween-80): 123 % of control
T/C (dose: 0.27 mg/kg/injection, schedule: Q01DX009 (ip), vehicle: saline with Tween-80): 116 % of control
T/C (dose: 0.4 mg/kg/injection, schedule: Q01DX009 (ip), vehicle: saline with Tween-80): 176 % of control
T/C (dose: 0.6 mg/kg/injection, schedule: Q01DX009 (ip), vehicle: saline with Tween-80): 123 % of control
T/C (dose: 44.0 mg/kg/injection, schedule: Q01DX009 (ip), vehicle: saline with Tween-80): 177 % of control
T/C (dose: 66.0 mg/kg/injection, schedule: Q01DX009 (ip), vehicle: saline with Tween-80): 200 % of control
T/C [3]: 177 % of control and 220 % of control
T/C [10]: 107 % of control
T/C (dose: 150.0 mg/kg/injection, schedule: Q01DX009 (ip), vehicle: saline with Tween-80): 90 % of control
T/C [4]: 105 % of control
T/C [7]: 111 % of control
T/C [11]: 115 % of control

O=[N+]([O-])c1ccc(OCc2ccc(S(=O)(=O)F)c(Cl)c2)c(Cl)c1
T/C (dose: 100.0 mg/kg/injection, schedule: Q01DX001 (ip), vehicle: saline): 115 % of control
T/C [8]: 102 % of control
T/C (dose: 200.0 mg/kg/injection, schedule: Q01DX001 (ip), vehicle: saline): 100 % of control
T/C [9]: 100 % of control
T/C (dose: 400.0 mg/kg/injection, schedule: Q01DX001 (ip), vehicle: saline): 103 % of control
T/C (dose: 400.0 mg/kg/injection, schedule: Q01DX009 (ip), vehicle: Klucel (hydroxypropylcellulose) (HPC)): 103 % of control
